Measured values as given in patent publication US20240067693A1, “POLYPEPTIDES AND USES THEREOF” (MEDIMMUNE LIMITED, priority 2020, published 2024).
Numbered stars: 1 amine (or outer) side, 2 acyl side, 3 side chain; on linkers, the order of the positions; unused ones are H or OH. Bridge positions count the residues as written; N and C are the ends. Square brackets hold non-standard residues; d marks the D form. Side chains are listed from the residue outwards. Peptide text beside a SMILES is read from it. * marks the point of attachment. C20 diacid = O=C(O)CCCCCCCCCCCCCCCCCCC(=O)*; C18 diacid = O=C(O)CCCCCCCCCCCCCCCCC(=O)*; γGlu = O=C(O)[C@H](CCC(=O)[*:2])N[*:1]; αMeF = C[C@](N)(Cc1ccccc1)C(=O)O

Legend:
[1] = target: T1, human calcitonin receptor (hCTR) (Homo sapiens, UniProt P30988); assay: cAMP production in 1321N1 cells with stable recombinant expression of human calcitonin receptor (hCTR); assay type: cell-based; settings: cAMP, 1321N1 cells, assay buffer with 0.1% BSA; read-out: EC50 (pM) hCTR
T1 construct: expressed in transfected cells
T1 sequence (P30988 25-474): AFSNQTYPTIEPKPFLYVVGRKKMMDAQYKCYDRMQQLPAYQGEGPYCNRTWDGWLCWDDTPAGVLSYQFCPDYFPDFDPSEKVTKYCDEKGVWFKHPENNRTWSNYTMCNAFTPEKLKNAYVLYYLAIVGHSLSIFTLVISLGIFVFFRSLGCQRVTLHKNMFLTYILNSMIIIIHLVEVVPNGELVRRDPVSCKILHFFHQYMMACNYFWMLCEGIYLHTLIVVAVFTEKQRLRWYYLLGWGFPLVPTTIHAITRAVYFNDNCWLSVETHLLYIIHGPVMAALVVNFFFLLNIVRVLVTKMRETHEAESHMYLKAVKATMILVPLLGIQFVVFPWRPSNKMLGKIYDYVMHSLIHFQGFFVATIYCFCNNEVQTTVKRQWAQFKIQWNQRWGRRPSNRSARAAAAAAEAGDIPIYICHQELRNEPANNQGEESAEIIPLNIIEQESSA
Protocol: (§1) The functional activities of lipidated pramlintide analogue peptides, such as cAMP production, were tested in 1321N1 cell line with stable recombinant expression of human calcitonin receptor (hCTR) or human amylin receptor (calcitonin receptor co-expressed with receptor activity modifying protein, RAMP3) (hAMYR3) or HEK cells with stable recombinant expression of rat calcitonin receptor (rat CTR) or rat amylin receptor (calcitonin receptor co-expressed with receptor activity modifying protein, RAMP3) (Rat AMYR3).
(§2) Cryopreserved cell stock was thawed rapidly in a water-bath, suspended in assay buffer (0.1% BSA (Sigma # A3059) in HBSS (Sigma # H8264) with 25 mM HEPES, pH 7.4 and containing 0.5 mM IB MX (Sigma# 17018)) and spun at 240×g for 5 minutes. Cells were re-suspended in assay buffer at a batch-dependent optimized concentration (e.g. hCTR cells at 0.125×10^5 cells/mL, hAMYR3 cells at 0.125×10^5 cells/mL, rat CTR cells at 1x10^5 cells/mL, rat AMYR3 at 2×10^5 cells/mL).
(§3) The test peptide stock was prepared in DMSO and diluted in assay buffer to reach stated concentrations and transferred in duplicates into a 384-black shallow well microtitre assay plate (Corning # 3676). Cells were added to the assay plate, incubated at room temperature for 30 minutes and the cAMP level measured using cAMP dynamic 2 HTRF kit (Cisbio, Cat # 62AM4PEJ), following the two step protocol as per manufacturer's recommendations. The plates were read on an Envision (Perkin Elmer) using excitation wavelength of 320 nm and emission wavelengths of 620nm & 665 nm.
(§4) Data was transformed to % Delta F as described in the manufacturer's guidelines and analyzed as percent activation of maximal amylin or calcitonin effect by 4-parameter logistic fit to determine EC50 values. The selectivity of a peptide to hAMYR vs hCTR is defined as a ratio of EC50 values at the two receptors.

[2] = target: T2, human amylin receptor (calcitonin receptor co-expressed with receptor activity modifying protein, RAMP3) (hAMYR3) (Homo sapiens, UniProt O60896+P30988); assay: cAMP production in 1321N1 cells with stable recombinant expression of human amylin receptor (hAMYR3); assay type: cell-based; settings: for Ratio (selectivity hAMYR vs hCTR, ratio of EC50 values at the two receptors): EC50 hCTR / EC50 hAMYR3; for EC50: cAMP, 1321N1 cells, assay buffer with 0.1% BSA, read-out: EC50 (pM) hAMYR3
T2 construct: expressed in transfected cells
T2 sequence (P30988 25-474): T1 sequence (P30988 25-474)
T2 sequence (O60896 24-148 partner): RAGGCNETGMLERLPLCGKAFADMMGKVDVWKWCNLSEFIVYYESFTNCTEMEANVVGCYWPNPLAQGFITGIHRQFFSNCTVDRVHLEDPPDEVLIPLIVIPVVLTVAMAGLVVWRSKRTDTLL
Protocol: as §1, §2, §3, §4

Row | SMILES | EC50 [1] | Ratio (selectivity hAMYR vs hCTR, ratio of EC50 values at the two receptors) [2] | EC50 [2]
1 | CC[C@H](C)[C@H](NC(=O)[C@@H]1CCCN1C(=O)CNC(=O)[C@](C)(Cc1ccccc1)NC(=O)[C@H](CC(N)=O)NC(=O)[C@H](CC(N)=O)NC(=O)[C@H](CO)NC(=O)[C@H](CO)NC(=O)[C@H](Cc1c[nH]cn1)NC(=O)[C@@H](NC(=O)[C@H](CC(C)C)NC(=O)[C@H](Cc1ccccc1)NC(=O)[C@H](CC(N)=O)NC(=O)[C@H](C)NC(=O)[C@H](CC(C)C)NC(=O)[C@H](CCCNC(=N)N)NC(=O)[C@H](CCC(N)=O)NC(=O)[C@@H](NC(=O)[C@H](C)NC(=O)[C@@H]1CSSC[C@H](NC(=O)[C@H](CCCCN)NC(=O)[C@@H](N)CCCCNC(=O)CC[C@H](NC(=O)CCCCCCCCCCCCCCCCC(=O)O)C(=O)O)C(=O)N[C@@H](CC(N)=O)C(=O)N[C@@H]([C@@H](C)O)C(=O)N[C@@H](C)C(=O)N[C@@H]([C@@H](C)O)C(=O)N1)[C@@H](C)O)C(C)C)C(=O)N[C@@H](CC(C)C)C(=O)N1CCC[C@H]1C(=O)N1CCC[C@H]1C(=O)N[C@H](C(=O)N[C@@H](CC(N)=O)C(=O)N[C@H](C(=O)NCC(=O)N[C@@H](CO)C(=O)N[C@@H](CC(N)=O)C(=O)N[C@H](C(=O)N[C@@H](Cc1ccc(O)cc1)C(N)=O)[C@@H](C)O)C(C)C)[C@@H](C)O [Peptide 14, K(γE-C18diacid)K[CNTATC]ATQRLANFLVHSSNN(αMePhe)GPILPPTNVGSNTY-amide] (H-K([γGlu-C18 diacid])KCNTATCATQRLANFLVHSSNN[αMeF]GPILPPTNVGSNTY-NH2; disulfide 3-8; N-terminus assumed) | 1350 pM | 6 | 220 pM
2 | CC[C@H](C)[C@H](NC(=O)[C@@H]1CCCN1C(=O)CNC(=O)[C@](C)(Cc1ccccc1)NC(=O)[C@H](CC(N)=O)NC(=O)[C@H](CC(N)=O)NC(=O)[C@H](CO)NC(=O)[C@H](CO)NC(=O)[C@H](Cc1c[nH]cn1)NC(=O)[C@H](CCCNC(=N)N)NC(=O)[C@H](CC(C)C)NC(=O)[C@H](Cc1ccccc1)NC(=O)[C@H](CC(N)=O)NC(=O)[C@H](C)NC(=O)[C@H](CC(C)C)NC(=O)[C@H](CCCNC(=N)N)NC(=O)[C@H](CCC(N)=O)NC(=O)[C@@H](NC(=O)[C@H](C)NC(=O)[C@@H]1CSSC[C@H](NC(=O)[C@@H](N)CCCCNC(=O)CC[C@H](NC(=O)CCCCCCCCCCCCCCCCC(=O)O)C(=O)O)C(=O)N[C@@H](CC(N)=O)C(=O)N[C@@H]([C@@H](C)O)C(=O)N[C@@H](C)C(=O)N[C@@H]([C@@H](C)O)C(=O)N1)[C@@H](C)O)C(=O)N[C@@H](CC(C)C)C(=O)N1CCC[C@H]1C(=O)N1CCC[C@H]1C(=O)N[C@H](C(=O)N[C@@H](CCC(=O)O)C(=O)N[C@H](C(=O)NCC(=O)N[C@@H](CO)C(=O)N[C@@H](CC(N)=O)C(=O)N[C@H](C(=O)N[C@@H](Cc1ccc(O)cc1)C(N)=O)[C@@H](C)O)C(C)C)[C@@H](C)O [Peptide 16, K(γE-C18diacid)[CNTATC]ATQRLANFLRHSSNN(αMePhe)GPILPPTEVGSNTY-amide] (H-K([γGlu-C18 diacid])CNTATCATQRLANFLRHSSNN[αMeF]GPILPPTEVGSNTY-NH2; disulfide 2-7; N-terminus assumed) | – | 9 | 221 pM
3 | CC[C@H](C)[C@H](NC(=O)[C@@H]1CCCN1C(=O)CNC(=O)[C@H](Cc1ccccc1)NC(=O)[C@H](CC(N)=O)NC(=O)[C@H](CC(N)=O)NC(=O)[C@H](CO)NC(=O)[C@H](CO)NC(=O)[C@H](Cc1c[nH]cn1)NC(=O)[C@@H](NC(=O)[C@H](CC(C)C)NC(=O)[C@H](Cc1ccccc1)NC(=O)[C@H](CC(N)=O)NC(=O)[C@H](C)NC(=O)[C@H](CC(C)C)NC(=O)[C@H](CCCNC(=N)N)NC(=O)[C@H](CCC(N)=O)NC(=O)[C@@H](NC(=O)[C@H](C)NC(=O)[C@@H]1CSSC[C@H](NC(=O)[C@@H](N)CCCCNC(=O)CC[C@H](NC(=O)CC[C@H](NC(=O)CCCCCCCCCCCCCCCCCCC(=O)O)C(=O)O)C(=O)O)C(=O)N[C@@H](CC(N)=O)C(=O)N[C@@H]([C@@H](C)O)C(=O)N[C@@H](C)C(=O)N[C@@H]([C@@H](C)O)C(=O)N1)[C@@H](C)O)C(C)C)C(=O)N[C@@H](CC(C)C)C(=O)N1CCC[C@H]1C(=O)N1CCC[C@H]1C(=O)N[C@H](C(=O)N[C@@H](CC(N)=O)C(=O)N[C@H](C(=O)NCC(=O)N[C@@H](CO)C(=O)N[C@@H](CCCNC(=N)N)C(=O)N[C@H](C(=O)N[C@@H](Cc1ccc(O)cc1)C(N)=O)[C@@H](C)O)C(C)C)[C@@H](C)O [Peptide 114] (H-K([γGlu-γGlu-C20 diacid])CNTATCATQRLANFLVHSSNNFGPILPPTNVGSRTY-NH2; disulfide 2-7 (inferred)) | – | 12 | –
4 | CC[C@H](C)[C@H](NC(=O)[C@H](C)NC(=O)[C@@H]1CCCN1C(=O)[C@H](Cc1ccccc1)NC(=O)[C@H](CC(N)=O)NC(=O)[C@@H]1CCCN1C(=O)[C@H](CO)NC(=O)[C@H](CO)NC(=O)[C@H](Cc1c[nH]cn1)NC(=O)[C@@H](NC(=O)[C@H](CC(C)C)NC(=O)[C@H](Cc1ccccc1)NC(=O)[C@H](CC(N)=O)NC(=O)[C@H](C)NC(=O)[C@H](CC(C)C)NC(=O)[C@H](CCCNC(=N)N)NC(=O)[C@H](CCC(N)=O)NC(=O)[C@@H](NC(=O)[C@H](C)NC(=O)[C@@H]1CSSC[C@H](NC(=O)[C@@H](N)CCCCNC(=O)CC[C@H](NC(=O)CC[C@H](NC(=O)CCCCCCCCCCCCCCCCCCC(=O)O)C(=O)O)C(=O)O)C(=O)N[C@@H](CC(N)=O)C(=O)N[C@@H]([C@@H](C)O)C(=O)N[C@@H](C)C(=O)N[C@@H]([C@@H](C)O)C(=O)N1)[C@@H](C)O)C(C)C)C(=O)N[C@@H](CC(C)C)C(=O)N[C@@H](CO)C(=O)N1CCC[C@H]1C(=O)N[C@H](C(=O)N[C@@H](CC(N)=O)C(=O)N[C@H](C(=O)NCC(=O)N[C@@H](CO)C(=O)N[C@@H](CC(N)=O)C(=O)N[C@H](C(=O)N[C@@H](Cc1ccc(O)cc1)C(N)=O)[C@@H](C)O)C(C)C)[C@@H](C)O [Peptide 115] (H-K([γGlu-γGlu-C20 diacid])CNTATCATQRLANFLVHSSPNFPAILSPTNVGSNTY-NH2; disulfide 2-7 (inferred)) | – | 11 | –
5 | CC[C@H](C)[C@H](NC(=O)[C@H](C)NC(=O)[C@@H]1CCCN1C(=O)[C@H](Cc1ccccc1)NC(=O)[C@H](CC(N)=O)NC(=O)[C@@H]1CCCN1C(=O)[C@H](CO)NC(=O)[C@H](CO)NC(=O)[C@H](Cc1c[nH]cn1)NC(=O)[C@@H](NC(=O)[C@H](CC(C)C)NC(=O)[C@H](Cc1c[nH]c2ccccc12)NC(=O)[C@H](CC(N)=O)NC(=O)[C@H](C)NC(=O)[C@H](CC(C)C)NC(=O)[C@H](CCCNC(=N)N)NC(=O)[C@H](CCC(N)=O)NC(=O)[C@@H](NC(=O)[C@H](C)NC(=O)[C@@H]1CSSC[C@H](NC(=O)[C@@H](N)CCCCNC(=O)CC[C@H](NC(=O)CC[C@H](NC(=O)CCCCCCCCCCCCCCCCCCC(=O)O)C(=O)O)C(=O)O)C(=O)N[C@@H](CC(N)=O)C(=O)N[C@@H](C)C(=O)N[C@@H](C)C(=O)N[C@@H]([C@@H](C)O)C(=O)N1)[C@@H](C)O)C(C)C)C(=O)N[C@@H](CC(C)C)C(=O)N[C@@H](CO)C(=O)N1CCC[C@H]1C(=O)N[C@H](C(=O)N[C@@H](CC(N)=O)C(=O)N[C@H](C(=O)NCC(=O)N[C@@H](CO)C(=O)N[C@@H](CC(N)=O)C(=O)N[C@H](C(=O)N[C@@H](Cc1ccc(O)cc1)C(N)=O)[C@@H](C)O)C(C)C)[C@@H](C)O [Peptide 120] (H-K([γGlu-γGlu-C20 diacid])CNAATCATQRLANWLVHSSPNFPAILSPTNVGSNTY-NH2; disulfide 2-7 (inferred)) | – | 6 | –
